These results are taken from paper PMC10818600, “In Silico Design, Synthesis, and Evaluation of Novel Enantiopure Isoxazolidines as Promising Dual Inhibitors of α-Amylase and α-Glucosidase” (Molecules, 2024).

Several values for one entry are separate records, joined by “and”; a condition that tells them apart may be missing. Equal values may be shown once.

Broadly, the IC50 is the concentration needed to halve the response being measured. Low values mean higher potency, high ones lower potency. Usually Ki stands for a measure of affinity in units of concentration, obtained from inhibition or displacement.

Common to all, as to format: biochemical
Experiment [1] concerns the target human lysosomal acid-α-glucosidase (Homo sapiens, UniProt P10253). The experiment can be described thus: α-glucosidase inhibition assay. Particulars: for IC50: mean ± standard error, triplicates. The method, then: (§1) The inhibitory potential of the synthesized analogs against human pancreatic α-amylase and human lysosomal acid-α-glucosidase enzymes was carried out using the same protocol as described previously with slight modification. […] The percent of inhibition for both enzymes was calculated via the following formula: % inhibition=Abs(blank)−Abs(test compoud)/Abs (blank)×100
(§2) The results were expressed as IC50 (μM), and all the experiments were carried out in triplicates.

Experiment [2] addresses T1, human pancreatic α-amylase (Homo sapiens, UniProt P04746).
T1 sequence (P04746 16-511): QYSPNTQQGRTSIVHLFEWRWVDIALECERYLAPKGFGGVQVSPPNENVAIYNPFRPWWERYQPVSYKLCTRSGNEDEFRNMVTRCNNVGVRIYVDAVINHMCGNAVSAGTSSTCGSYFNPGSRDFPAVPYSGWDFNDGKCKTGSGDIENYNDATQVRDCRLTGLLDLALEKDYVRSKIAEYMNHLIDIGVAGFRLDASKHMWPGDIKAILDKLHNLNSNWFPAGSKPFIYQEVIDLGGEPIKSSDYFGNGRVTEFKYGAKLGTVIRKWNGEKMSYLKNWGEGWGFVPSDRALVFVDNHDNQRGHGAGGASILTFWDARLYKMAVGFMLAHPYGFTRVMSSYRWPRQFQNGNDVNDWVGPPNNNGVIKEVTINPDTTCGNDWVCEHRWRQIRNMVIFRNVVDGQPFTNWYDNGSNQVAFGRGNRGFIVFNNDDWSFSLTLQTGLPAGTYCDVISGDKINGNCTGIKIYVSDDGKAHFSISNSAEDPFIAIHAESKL
The experiment can be described thus: α-amylase inhibition assay. Particulars: for IC50: mean ± standard error, triplicates. The method, then: as §1, §2

The target of experiment [3] is α-glucosidase (Homo sapiens, UniProt P10253). The experiment can be described thus: enzyme kinetic study, mode of α-glucosidase inhibition (Lineweaver–Burk). The method, then: (§3) The kinetic studies were carried out based on the above IC50 values. […] A volume of 20 μL was incubated for 15 min at 30 °C using varying concentrations of the inhibitor 5d against α-amylase (0, 5, 25, and 35 μM) and α-glucosidase ([…]) with varying concentrations of inhibitor substrate (starch) in the range 0.3 to 8 mM, whereas concentrations for the inhibitor substrate (p-nitrophenyl-α-D-glucopyranoside, PNPg) were in the range 0.1–1.3 mM, respectively. This was conducted according to the same protocol as previously described, with slight modifications. The type of enzyme inhibition was assessed by preparing Lineweaver–Burk plots of the inverse of the velocities (1/V) versus the inverse of the substrate’s concentration 1/[S] mM^−1, and the change in absorbance was measured spectrophotometrically at 405 nm. The constant of inhibition, Ki, was determined through the secondary plot of the slope versus the inhibitor concentration.

In experiment [4] the target is T2, α-amylase (Homo sapiens, UniProt P04746).
T2 sequence (P04746 16-511): T1 sequence (P04746 16-511)
The experiment can be described thus: enzyme kinetic study, mode of α-amylase inhibition (Lineweaver–Burk). The method, then: as §3

Where [5] appears, read: ratio of IC50 values vs acarbose.

As to `Cc1cccc(C[C@@H]2C[C@@H]3C(=O)N(C)C4(C[C@H](C)CC[C@H]4C(C)C)N3O2)c1OCC(=O)NNC(=O)Nc1ccc(Cl)c(C(F)(F)F)c1` (stereo partly drawn) [5b, N-(3-trifluoromethyl-4-chlorophenyl)-2-(2-(2-(((2S,2′R,3a’R,5R)-2-isopropyl-5,5′-dimethyl-4′-oxotetrahydro-2′H-spiro[cyclohexane-1,6′-imidazo[1,5-b]isoxazol]-2′-yl)methyl)-6-methylphenoxy)acetyl)hydrazine-1-carboxamide], the IC50 in experiment [1] came to 118.9 ± 0.325 µM; in experiment [2] it was 67.4 ± 0.202 µM.
The matching figures for `Cc1cccc(C[C@@H]2C[C@@H]3C(=O)N(C)C4(C[C@H](C)CC[C@H]4C(C)C)N3O2)c1OCC(=O)NNC(=O)Nc1cccc(Cl)c1` (stereo partly drawn) [5c, N-(3-chlorophenyl)-2-(2-(2-(((2S,2′R,3a’R,5R)-2-isopropyl-5,5′-dimethyl-4′-oxotetrahydro-2′H-spiro[cyclohexane-1,6′-imidazo[1,5-b]isoxazol]-2′-yl)methyl)-6-methylphenoxy)acetyl)hydrazine-1-carboxamide]: 120.9 ± 0.333 µM and 92.28 ± 0.276 µM.
On the same counts, the results for `Cc1cccc(C[C@@H]2C[C@@H]3C(=O)N(C)C4(C[C@H](C)CC[C@H]4C(C)C)N3O2)c1OCC(=O)NNC(=O)Nc1ccc(F)cc1` (stereo partly drawn) [5a, N-(4-fluorophenyl)-2-(2-(2-(((2S,2′R,3a’R,5R)-2-isopropyl-5,5′-dimethyl-4′-oxotetrahydro-2′H-spiro[cyclohexane-1,6′-imidazo[1,5-b]isoxazol]-2′-yl)methyl)-6-methylphenoxy)acetyl)hydrazine-1-carboxamide] are 152.3 ± 0.367 µM and 120.3 ± 0.306 µM.
With `COc1cc(C[C@@H]2C[C@@H]3C(=O)N(C)C4(C[C@H](C)CC[C@H]4C(C)C)N3O2)ccc1OCC(=O)NNC(=O)Nc1ccc(Br)cc1` (stereo partly drawn) [5f, N-(4-bromophenyl)-2-(2-(4-(((2S,2′R, 3a’R, 5R)-2-isopropyl-5,5′-dimethyl-4′-oxotetrahydro-2′H-spiro[cyclohexane-1,6′-imidazo[1,5-b]isoxazol]-2′-yl)methyl)-2-methoxyphenoxy)acetyl)hydrazine-1-carboxamide], the IC50 in experiment [1] is 204.6 ± 0.41 µM; in experiment [2] it was 183.8 ± 0.498 µM.
On the same counts, the results for `COc1cc(C[C@@H]2C[C@@H]3C(=O)N(C)C4(C[C@H](C)CC[C@H]4C(C)C)N3O2)ccc1OCC(=O)NNC(=O)Nc1ccc(F)cc1` (stereo partly drawn) [5g, N-(4-fluorophenyl)-2-(2-(4-(((2S,2′R,3a’R,5R)-2-isopropyl-5,5′-dimethyl-4′-oxotetrahydro-2′H-spiro [cyclohexane-1,6′-imidazo[1,5-b]isoxazol]-2′-yl)methyl)-2-methoxyphenoxy)acetyl)hydrazine-1-carboxamide] are 170.8 ± 0.358 µM and 134.8 ± 0.411 µM.
For the compound `Cc1cccc(C[C@@H]2C[C@@H]3C(=O)N(C)C4(C[C@H](C)CC[C@H]4C(C)C)N3O2)c1OCC(=O)NNC(=O)Nc1ccc(Cl)cc1` (stereo partly drawn) [5e, N-(4-chlorophenyl)-2-(2-(2-(((2S,2′R,3a’R,5R)-2-isopropyl-5,5′-dimethyl-4′-oxotetrahydro-2′H-spiro[cyclohexane-1,6′-imidazo[1,5-b]isoxazol]-2′-yl)methyl)-6-methylphenoxy)acetyl)hydrazine-1-carboxamide], the IC50 in experiment [1] worked out at 258.7 ± 0.521 µM; in experiment [2], 232.8 ± 0.517 µM.
In the case of `Cc1cccc(C[C@@H]2C[C@@H]3C(=O)N(C)C4(C[C@H](C)CC[C@H]4C(C)C)N3O2)c1OCC(=O)NNC(=O)Nc1cccc2ccccc12` (stereo partly drawn) [5d, 2-(2-(2-(((2S,2′R,3a’R,5R)-2-isopropyl-5,5′-dimethyl-4′-oxotetrahydro-2′H-spiro[cyclohexane-1,6′-imidazo[1,5-b]isoxazol]-2′-yl)methyl)-6-methylphenoxy)acetyl)-N-(naphthalen-1-yl)hydrazine-1-carboxamide], the IC50 in experiment [1] came out at 94.33 ± 0.282 µM; in experiment [2] it was 53.03 ± 0.106 µM. Besides, the “α-glucosidase inhibitory activity, fold higher than that of acarbose” value in experiment [1] (setting [5]) is 8.3 fold and 8.27 fold. For the same compound, the “mode of α-glucosidase inhibition” value in experiment [3] (Lineweaver–Burk plot: Km increases, Vmax constant) is listed as “competitive”. The inhibition constant Ki in experiment [3] (estimated from slope vs inhibitor concentration, substrate PNPg, read-out: inhibition constant Ki, α-glucosidase) was 89.5 µM; in experiment [4] (estimated from secondary re-plot of Lineweaver–Burk plots, substrate starch, read-out: inhibition constant Ki, α-amylase), 31.9 µM. Moreover, the “mode of α-amylase inhibition” value in experiment [4] (Lineweaver–Burk plot: Vmax unchanged, Km increased) is “competitive”. The “α-amylase inhibitory activity, fold higher than that of acarbose” value in experiment [2] (setting [5]) was 5.6 fold and 5.59 fold.
